Source: patent publication US20240026062A1, “WATER-BASED POLYURETHANE DISPERSIONS AND THEIR PREPARATION” (Dow Global Technologies LLC, priority 2020, published 2024)
Each block holds one compound with its values, some of them ahead of it.

Columns and labels:
[1] = Solubility evaluation of diols containing an acid group in NMP or DPGDME; type: physicochemical; on Solubility, DMBA in DPGDGME (75° C.): key: An entry of 'Yes' indicates completely soluble; an entry of 'No' means not fully soluble; on Solubility, DMBA in NMP (25° C.): key: An entry of 'Yes' indicates completely soluble; an entry of 'No' means not fully soluble; on Solubility, DMPA in DPDGME (95° C.): key: An entry of 'Yes' indicates completely soluble; an entry of 'No' means not fully soluble; on Solubility, DMPA in NMP (25° C.): key: An entry of 'Yes' indicates completely soluble; an entry of 'No' means not fully soluble
Method: The solubility of certain diols containing an acid group (2,2-dimethylolpropionic acid (DMPA) and 2,2-dimethylolbutanoic acid (DMBA)) in dipropylene glycol dimethyl ether (DPGDME) and in N-methyl-2-pyrrolidone (NMP) are evaluated at different temperatures. The DPGDME used is PROGLYDE™ DMM (The Dow Chemical Company). The following concentrations with corresponding amounts of DMPA or DMBA and of solvent (DPGDME or NMP) are evaluated:
Using a 30 milliliter glass vial with a 24-mm black phenolic screw cap with poly seal liner from Fisher, the […] (DMBA or DMPA) is added at 5 wt. %, 10 wt. %, 15 wt. %, 20 wt. %, and 25 wt. % in the solvent (NMP or DPGDME) as specified in Table 1. Samples are heated on a high throughput heating/mixing station from 25° C. to 100° C. in 10° C. increments while mixing at 500 rpm with a magnetic stir bar. Samples are then removed an image is taken to record solubility.

[2] = animal testing; cited from earlier work

Solubility, DMBA in DPGDGME (75° C.) ([1]; 5 weight % in DPGDGME, 75° C.): Yes | Solubility, DMBA in NMP (25° C.) ([1]; 5 weight % in NMP): Yes | Solubility, DMBA in DPGDGME (75° C.) ([1]; 10 weight % in DPGDGME, 75° C.): Yes | Solubility, DMBA in NMP (25° C.) ([1]; 10 weight % in NMP): Yes | Solubility, DMBA in DPGDGME (75° C.) ([1]; 15 weight % in DPGDGME, 75° C.): Yes | Solubility, DMBA in NMP (25° C.) ([1]; 15 weight % in NMP): Yes | Solubility, DMBA in DPGDGME (75° C.) ([1]; 20 weight % in DPGDGME, 75° C.): Yes | Solubility, DMBA in NMP (25° C.) ([1]; 20 weight % in NMP): Yes | Solubility, DMBA in DPGDGME (75° C.) ([1]; 25 weight % in DPGDGME, 75° C.): Yes | Solubility, DMBA in NMP (25° C.) ([1]; 25 weight % in NMP): Yes | Solubility in DPGDME ([1]; 75° C.): fully dissolve | Solubility in both solvents tested (NMP and DPGDME) ([1]; all concentrations up to 25 weight %, varying temperatures): soluble
SMILES: CCC(CO)(CO)C(=O)O [DMBA, 2,2-dimethylolbutanoic acid]

Solubility, DMPA in DPDGME (95° C.) ([1]; 5 weight % in DPDGME, 95° C.): No | Solubility, DMPA in NMP (25° C.) ([1]; 5 weight % in NMP): Yes | Solubility in DPGDGME ([1]; 5 weight %, 95° C.): not fully soluble | Solubility, DMPA in DPDGME (95° C.) ([1]; 10 weight % in DPDGME, 95° C.): No | Solubility, DMPA in NMP (25° C.) ([1]; 10 weight % in NMP): Yes | Solubility, DMPA in DPDGME (95° C.) ([1]; 15 weight % in DPDGME, 95° C.): No | Solubility, DMPA in NMP (25° C.) ([1]; 15 weight % in NMP): Yes | Solubility, DMPA in DPDGME (95° C.) ([1]; 20 weight % in DPDGME, 95° C.): No | Solubility, DMPA in NMP (25° C.) ([1]; 20 weight % in NMP): Yes | Solubility, DMPA in DPDGME (95° C.) ([1]; 25 weight % in DPDGME, 95° C.): No | Solubility, DMPA in NMP (25° C.) ([1]; 25 weight % in NMP): Yes | Solubility in DPGDME (overall) ([1]; in DPGDME): poor | Solubility in NMP ([1]; room temperature (25° C.), all concentrations up to 25 weight %, upon mixing in NMP): completely soluble
SMILES: CC(CO)(CO)C(=O)O [DMPA, 2,2-dimethylolpropionic acid]

SMILES: CN1CCCC1=O [NMP, N-methyl-2-pyrrolidone]
Reproductive toxicity [2]: shows reproductive toxicity
